Assay results from paper PMC8305652, “Copper(II) Complexes Containing Natural Flavonoid Pomiferin Show Considerable In Vitro Cytotoxicity and Anti-inflammatory Effects” (International Journal of Molecular Sciences, 2021).

How the values were obtained:
[1] = system: THP-1 human monocytic leukemia cell line; assay: relative cell viability, WST-1; assay type: cell-based; details: 24 h, six independent experiments
Procedure: The THP-1 human monocytic leukemia cell line was purchased from the European Collection of Cell Cultures (ECACC, Salisbury, UK). Cells were cultured in an RPMI 1640 medium containing stabilized 2 mM L-glutamine (Biosera, Nuaille, France) supplemented with the mixture of antibiotics [100 U/mL penicillin and […] (Biosera, Nuaille, France)], and 10% foetal bovine serum (FBS) (HyClone, Marlborough, MA, USA). The cells were kept in an incubator at 37 °C in an atmosphere of air containing 5% CO2 and 100% humidity.
The relative cell viability of floating monocytes THP-1 were determined after 24 h incubation in a serum-free medium with compounds 1–5 dissolved in N,N-dimethylformamide (DMF) at increasing concentrations (20–0.125 µM) by the cell proliferation reagent WST-1 (Roche, Basel, Switzerland) according to the manufacturer’s manual, as we described previously. The IC50 values were calculated from resultant viability curves by four-parameter logistic (4PL) analysis.

[2] = system: NF-κB in differentiated THP-1 macrophages; assay: immunocytochemical analysis of NF-κB nuclear translocation; assay type: cell-based, human; details: 200 nM, 1 h pre-treatment, 1 h LPS (1 µg/mL), fluorescence microscopy
Procedure: To differentiate the THP-1 monocytes to macrophages, phorbol myristate acetate (PMA) was used at the final concentration of 50 ng/mL. The cells were split into 8-well cell culture glass slides (SPL, Gyeonggi-do, South Korea) at a concentration of 3 × 10^5 cells/300 µL/well. Monocytes were differentiated by PMA treatment for 24 h and then the medium was changed. Macrophages were washed with PBS, transferred into a serum-free medium and incubated for 2 h. After 1 h pre-treatment with 5 (200 nM), prednisone (200 nM) or 0.1% DMF (v/v) solution used as a control, NF-κB nuclear translocation was triggered by the addition of LPS (1 µg/mL). The macrophages were washed with PBS and fixed with 4% formaldehyde 1 h later. Permeabilization was performed using 0.1% v/v Triton X-100 (Merck). After blocking with 3% bovine serum albumin (BSA; Merck, Darmstadt, Germany) dissolved in PBS, the primary antibody anti-NF-κB p65 (Abcam, Cambridge, UK, product No. ab16502) was added at a concentration of 2.5 µg/mL and incubated at 4 °C overnight. Then a secondary anti-rabbit antibody labelled by Alexa Fluor 488® (Cell Signalling, Danvers, MA, USA) product No. 4412, dilution 1:1500) was applied in dark at 4 °C for 1 h. […] The NF-κB migration activity was evaluated by fluorescent microscopy after the nail polish cured using the fluorescence microscope IX73 (Olympus, Tokyo, Japan).

[3] = system: IκB and MAPKs p38, ERK1/2, JNK in THP-1 macrophages; assay: IκB and MAPK signalling pathways, Western blot; assay type: cell-based, human; details: 200 nM, 1 h pre-treatment, 30 min after LPS
Procedure: Macrophages derived from THP-1 cells were used to evaluate the influence of tested complexes on the signalling pathway leading to activation of transcription factors NF-κB and AP-1. To differentiate THP-1 monocytes into macrophages, the cells were stimulated with phorbol myristate acetate (PMA), as described above. The level of inhibitor of NF-κB (IĸB) and phosphorylation (activation) of mitogen-activated protein kinases (MAPKs) p38, ERK1/2, and JNK was determined in a way similar to that described previously. Above mentioned proteins were detected by the following primary antibodies: anti-IĸB-α at the dilution 1:500 (Cell Signalling, Danvers, MA, USA; products No. 4814), anti-phospho-SAPK/JNK at the dilution 1:500 (Cell Signalling; products No. 4668), anti-p44/42 MAPK (ERK1/2) at the dilution 1:1000 (Cell Signalling; products No. 4695), anti-phospho-p44/42 MAPK (ERK1/2) at the dilution 1:1000 (Cell Signalling; products No. 4370), anti-p38 MAPK at the dilution 1:1000 (Cell Signalling; products No. 9212), anti-phospho-p38 MAPK antibodies at the dilution 1:1000 (Cell Signalling; products No. 4511), anti-SAPK/JNK at a dilution of 1:250 (Sigma-Aldrich, product No. SAB4200176), and anti-β-actin at a dilution of 1:5000 (Abcam, Cambridge, UK; product No. 8226). […] The amount of bound secondary antibody was determined using ECL reagent (Bio-Rad, Hercules, CA, USA). […]

THP-1 cells = assay: intracellular production of reactive oxygen species, DCFH2-DA; assay type: cell-based, human; details: THP-1, 200 nM; for ROS production, long term: 23.5 h, pyocyanin 100 μM as radical-forming control; for increase of total ROS levels: 1.5 h experiment
Procedure: THP-1 cells were used for the determination of the potential of tested compounds to initiate the intracellular ROS production, as was described previously with some minor modifications. Cells in serum-free RPMI 1640 medium without phenol red were seeded into black 96-well plates (5 × 10^4 cells/100 µL/well). After 2 h of incubation, the cells were treated with copper(II) complexes 1–5 at a concentration of 200 nM, and pyocyanin at a final concentration of 100 μM was added into control group to trigger production of reactive oxygen species (ROS), respectively. After the incubation at 37 °C for either 1.5 h or 23.5 h, dichlorofluorescin diacetate (DCFH2-DA) (5 μg/mL) was added and cells were kept under the same conditions hereafter. Thirty minutes later, fluorometric measurement of the fluorescent product DCF was conducted using a Tecan Infinite F200 microplate reader (Tecan, Männedorf, Switzerland) with λ(ex./em.) = 485/520 nm.

[4] = system: caspases 3/7 in A2780 cells; assay: activation of caspases 3/7, flow cytometry; assay type: cell-based, human; details: A2780, 15 µM, 24 h
Procedure: Both methods were performed according to the manufacturers’ protocols with 1 modification in the caspase induction assay, which was the use of the CellEvent^TM Caspase-3/7 Green Detection Reagent only for detection of Caspase-3/7 activation. […] After 24 h, the cells were washed once with PBS (0.1 M, pH 7.4), detached with trypsin (0.25% in ethylenediaminetetraacetic acid (EDTA), Sigma-Aldrich), resuspended in 500 µL of the culture medium and divided into 2 separate tubes, the first for apoptosis assay and the second one for caspase activation analysis. After staining with appropriate dyes, samples were analyzed on a BD FACSVerse flow cytometer (Becton Dickinson, Franklin Lakes, NJ, USA) in 3 separate experiments, while at least 10^4 events were recorded for each sample prepared in duplicate.

| Molecule | IC50 ([1]; serum-free medium) | NF-κB nuclear translocation [2] | IκB and MAPK intracellular signalization [3] | ROS production, long term (THP-1 cells) | IC50 ([1]; Homo sapiens, THP-1, serum-free medium) | ROS production, short term (THP-1 cells; 1.5 h) | activation of executioner caspases 3/7 [4] | increase of total ROS levels (THP-1 cells) |
| --- | --- | --- | --- | --- | --- | --- | --- | --- |
| (3-(3,4-dihydroxyphenyl)-8,8-dimethyl-6-(3-methylbut-2-en-1-yl)-4H,8H-benzo[1,2-b:3,4-b′]dipyran-4-one-5-olato-κ^2O4:O5)(dipyrido[3,2-a:2′,3′-c]phenazine–κ^2N4:N5)copper(II) nitrate methanol solvate [Complex 5] | 3.1 ± 1.1 µM | the NF-κB levels in the nucleus decreased | did not affect the intracellular signalization | elevated the ROS levels similarly as pyocyanin |  |  |  |  |
| CC(C)=CCc1c2c(c3occ(-c4ccc(O)c(O)c4)c(=O)c3c1O)C=CC(C)(C)O2 [pomiferin, 3-(3,4-dihydroxyphenyl)-5-hydroxy-8,8-dimethyl-6-(3-methylbut-2-ene-1-yl)-4H,8H-benzo[1,2-b:3,4-b′]dipyran-4-one] |  |  |  | did not increase the amount of ROS | > 10 µM | did not increase the amount of ROS |  |  |
| CC(C)=CCc1c2c(c3occ(-c4ccc(O)c(O)c4)c(=O)c3c1[O-])C=CC(C)(C)O2.CO.O=[N+]([O-])[O-].[Cu+2].c1ccc(-c2ccnc3c2ccc2c(-c4ccccc4)ccnc23)cc1 [Complex 4, (3-(3,4-dihydroxyphenyl)-8,8-dimethyl-6-(3-methylbut-2-en-1-yl)-4H,8H-benzo[1,2-b:3,4-b′]dipyran-4-one-5-olato-κ^2O4:O5)(4,7-diphenyl-1,10-phenanthroline–κ^2N:N)copper(II) nitrate methanol solvate] | 3.3 ± 1.2 µM | blocked the nuclear translocation |  | pro-oxidant effect almost diminished |  |  | significantly increase the antiproliferative effects over the free pomiferin and reference drug cisplatin | 87% |
| CC(C)=CCc1c2c(c3occ(-c4ccc(O)c(O)c4)c(=O)c3c1[O-])C=CC(C)(C)O2.Cc1ccnc(-c2cc(C)ccn2)c1.O.O.O=[N+]([O-])[O-].[Cu+2] [Complex 2, (3-(3,4-dihydroxyphenyl)-8,8-dimethyl-6-(3-methylbut-2-en-1-yl)-4H,8H-benzo[1,2-b:3,4-b′]dipyran-4-one-5-olato-κ^2O4:O5)(4,4′-dimethyl-2,2′-bipyridine–κ^2N:N)copper(II) nitrate dihydrate] | 7.9 ± 1.1 µM |  | did not affect the intracellular signalization | pro-oxidant effect almost diminished |  |  |  | 55% |
